According to US10076246B2, “Method and apparatus for noninvasive quantitative detection of fibrosis in normal and viable myocardium by MRI” (Oregon Health & Science University, priority 2007, dated 2018):

Assays:
[1] = Ex-vivo contrast-enhanced MRI (3 Tesla, T1 inversion recovery) measurement of gadodiamide partition coefficient / relative distribution volume in postmortem myocardium samples; assay type: in vitro ADME, human; conditions: 24 hours incubation in ~3 mM gadodiamide-saline solution
Experimental: As an example of the above-described methodology, eight samples of human myocardium were obtained postmortem and a fast spin-echo sequence (3 Tesla) with non-slice selective inversion pulse performed before and after immersion in a gadodiamide saline solution for determination of the gadodiamide partition coefficient. T1 values were calculated from the inversion recovery signal curves. The same samples were fixed in formalin, and the collagen volume fraction was determined by the picrosirius red method using a semi-automated, polarized, digital microscopy system. […] Moreover, there was a significant positive correlation between the two methods, across all three histological categories of myocardial fibrosis (r=0.73; p=0.017). Thus, these findings indicate an expanded potential for contrast enhanced MRI as a novel, non-invasive alternative to histological evaluation, for the quantification of both interstitial and replacement myocardial fibrosis.
In accordance with an exemplary embodiment as outlined briefly above, eight samples of myocardium were obtained from deceased patients. Each sample of ventricular myocardium was 1 to 2 cm in thickness, and cut at the mid-level of the ventricular septum to include left and right ventricular free walls. All samples were stored at −80° C. until time of analysis.
A pre-contrast MRI was performed approximately 10-12 hours after thawing each sample. […] The longitudinal relaxation time T1 of myocardial tissue and saline was measured with a spin-echo MRI pulse sequence with non-slice-selective inversion pulse, and for 12-15 inversion delays (inversion times in the range from T1=50 to 2000 ms). […]
After the first MRI scan, the sample was incubated at 3-4° C. in a gadodiamide—saline solution for 24 hours (initial gadodiamide concentration in saline before immersion of tissue slice was ˜3 mM; saline R1 at 3 Tesla after 24 hours incubation: 3.9±0.3 s^−1). […] The effects of duration of thawing were also evaluated. […] Accordingly, these two sets of samples with different durations of thawing were analyzed separately. […]

[2] = at 37° C.; cited from earlier work

## CNC(=O)CN(CCN(CCN(CC(=O)[O-])CC(=O)NC)CC(=O)[O-])CC(=O)[O-].[Gd+3] [gadodiamide]
[1]; interstitial fibrosis myocardium
  mean gadodiamide distribution volume (with 95% confidence interval): 0.43+/−0.22
[1]; normal myocardium
  mean gadodiamide distribution volume (with 95% confidence interval): 0.17+/−0.05
[1]; replacement fibrosis myocardium
  mean gadodiamide distribution volume (with 95% confidence interval): 0.46+/−0.05
[2]
  osmolality: 789 mOsmol/kg water
